According to patent publication US20130053320A1, “TREATMENT OF ANEMIA BY ADNP AND ADNF POLYPEPTIDES” (Ramot at Tel-Aviv University, Ltd., priority 2010, published 2013):

Key:
MEL cells [1] = assay: Growth of MEL cells during differentiation (viable cell counts); type: cell-based, mouse; conditions: 2% DMSO vs ND cells
Procedure: FIG. 4: ADNP and ADNP2 are required for mouse erythroid differentiation. (A-C) MEL cells were differentiated with 2% DMSO for 4 days and compared to non-differentiated (ND) cells incubated for the same time period. Results are means±S.E.M analyzed by student's t-test (*p<0.05, **p<0.01, ***p<0.001). (A) The picture depicts the red pellet (Hb) of differentiated (D) cells compared to the white pellet of ND cells. (B) mRNA expression levels of β-globin, band3 and c-kit in D versus ND MEL cells. 4 experiments were performed, each in duplicates. Data is presented in logarithmic scale as fold change from the expression level in the ND state. (C) Growth curves of D and ND MEL cells. Results are % of the number of cells at plating (100%). […] Real-Time PCR analysis determined ADNP, ADNP2, β-globin, band3 and c-kit expression levels. […] Results, means±S.E.M were analyzed using student's t-test (*p<0.05, **p<0.01, ***p<0.001, relative to control cells, transfected with non-specific shRNA/siRNA sequences). (F+G) MEL cells were transfected with ADNP/ADNP2 shRNA/siRNA respectively, and viable cells were counted every 24 hrs during 4 days differentiation process with 2% DMSO. […] Results are presented as % from the number of cells at plating (100%), and analyzed using student's t-test (**p<0.01, relative to number of control cells, transfected with non-specific siRNA or shRNA sequences). […]

MEL cells [2] = assay: MEL cell erythroid differentiation, marker mRNA by Real-Time PCR; type: cell-based, mouse
Procedure: MEL cells were a gift from Prof. N. Shaklai (Tel Aviv University, Israel). Cells were cultured at 37° C. in 5% CO2 incubator in RPMI-1640 medium supplemented with 10% fetal calf serum, 2 mM L-glutamine, 100 U/ml penicillin, 0.1 mg/ml streptomycin and 12.5 U/ml nystatin (Biological Industries, Beit Haemek, Israel). To induce erythroid differentiation, 2% DMSO (v/v, Sigma, St. Louis, Mo., USA) was added for 4 days.
2 ADNP shRNA clones (sh68 and sh71, Sigma) were used for mouse ADNP (NM_009628) silencing in MEL cells, as before (Mandel et al., 2008, J Mol Neurosci 35, 127-141). […] For mouse ADNP2 (NM_175028) silencing, a mixture of 2 stealth small interfering RNA (siRNA) duplexes (Invitrogen, Carlsbad, Calif., USA) was used.
Transfections were performed using Lipofectamine-2000 (Invitrogen). 6 hours after transfection, 2% DMSO was added to the cells for 4 days in order to induce erythroid differentiation. On the 4th day, cells were harvested, RNA was extracted and expression levels of ADNP, ADNP2, band3, β-globin, Brg1 and c-kit were evaluated.
Total RNA from MEL cells was extracted by the RNeasy Plus Mini Kit (Qiagen, Hilden, Germany). RNA integrity was determined by fractionation on 1% agarose gel and staining with ethidium bromide. RNA quantity (OD260) was determined by NanoDrop spectrophotometer (NanoDrop Technologies, Wilmington, Del., USA).
Samples with the same amount of total RNA were used to synthesize single-strand cDNA employing the Applied Biosystems High Capacity cDNA Reverse Transcription Kit (Applied Biosystems, Foster City, Calif., USA) and random hexamers primers as before (Dresner et al., 2010, supra). Primer pairs (see Table 1) were designed using the primer 3 web interface (website: frodo.wi.mit.edu/primer3/) and synthesized by Sigma-Genosys (The Woodlands, Tex., USA). To avoid amplification of contaminating genomic DNA, primers were designed to exon-exon junction. […]

zebrafish embryos [3] = assay: Morpholino knockdown in zebrafish embryos, observation of blood and morphology; type: in vivo; conditions: for cardiac edema / smaller head and eyes: MO-injected embryos; for morphology and development: MO-injected embryos vs control; for smaller head and eyes: FIG. 2C; for blood colour: at 72 hpf, vs red blood of control embryos; for blood cells in circulation: starting from 28 hpf, vs control-MO injected embryos
Procedure: (§1) Gene knockdown experiments were performed using morpholino-modified antisense oligonucleotides (MO's, Gene Tools, Philomath, Oreg., USA). MO's were injected into wild type embryos, immediately after fertilization (2 nl, 1-2 mM). This was followed by a daily monitoring of the embryos for 10 days. MO's sequences were chosen through the Gene Tools oligonucleotide design service. A splicing MO, directed to intron3-exon4 boundary, was designed to block adnp1a (adnp1a-MO, 5′-[…]-3′). The efficiency of the adnp1a splicing MO was evaluated by RT-PCR. Translation MO's were designed to block adnp1b, adnp2a and adnp2b (adnp1 b-MO, 5′-[…]-3′; adnp2a-MO: 5′-[…]-3′; adnp2b-MO: 5′-[…]-3′). BLAST analysis was performed to verify that the MO's were not predicted to bind gene sequences other than their targets, and that their target sequence was not conserved among the other zebrafish adnp1 and adnp2 genes. Gene-Tools standard control-MO, which has not been reported to have other targets or generate any phenotypes, was used as a negative control (5-[…]-3′). Injections were repeated in at least 4 independent experiments for each MO.
For adnp2a-MO injected embryos, blood circulation was evaluated at 48 hpf. For the 3 other MO's, circulation was examined at 72 hpf when red blood is easily seen. Based on observation, embryos were divided to have normal blood cells, no blood cells or hypochromic and/or fewer blood cells.

zebrafish embryos [4] = assay: O-dianisidine staining of Hb in whole MO-injected embryos; type: in vivo; conditions: for Hemoglobin (Hb) staining, Hb content: 48 hpf and 72 hpf; for O-dianisidine staining: 48 hpf, vs control embryos (legend FIG. 2F)
Procedure: as §1
Hb activity was detected in whole embryos by performing o-dianisidine staining as described (Iuchi and Yamamoto, 1983, J Exp Zool 226, 409-417).

zebrafish embryos [5] = assay: Whole-mount in situ hybridization (WMISH) of hematopoietic markers in MO-injected embryos; type: in vivo
Procedure: as §1
Transcripts of sci (NM_213237), lmo2 (NM_131111), gata1 (NM_131234), band3 (NM_198338), embryonic α-globin 1 (NM_182940), lys-C(NM_139180), l-plastin (NM_131320), ikaros (NM_130986), c-myb (NM_131266), irx7 (NM_131881), flk1 (NM_131472), cmlc2 (NM_131329), adnp1a (NM_001080015), adnp1b (XM—002666474), adnp2a (NM_001098265) and adnp2b (NM_001080013) were detected by WMISH using digoxygenin (DIG) labeled antisense RNA probes at a concentration of 1 ng/μl. Transcription of RNA probes was performed from pGEM-T Easy plasmids linearized before the coding sequence, using SP6 or T7 RNA polymerases (DIG RNA labeling kit, Roche Applied Science, Penzberg, Germany). Embryos at different developmental stages were fixed overnight in 4% paraformaldehyde and stored in 100% methanol. WMISH was performed as describe (Ziv et al., 2005, supra). Fixed embryos were then placed in 70% glycerol for observation and photography using a dissecting stereoscope (SZX12, Olympus) equipped with digital camera (DP70, Olympus). In each experiment, embryos hybridized with the same probe were stained under the same conditions and for the same time period using identical microscopic and camera settings.

[6] = 2% DMSO for 4 days vs non-differentiated cells

C[S+](C)[O-] [DMSO]
growth rate of differentiating cells (MEL cells [1]): significant reduction
c-kit expression lower (MEL cells [2]; 2% DMSO for 4 days vs ND cells): 200 times
increase of band3 mRNA expression (MEL cells [2]; [6]): 10000 fold
increase of β-globin mRNA expression (MEL cells [2]; [6]): 1000 fold

adnp1a-MO: splicing morpholino antisense oligonucleotide to intron3-exon4 boundary of zebrafish adnp1a, 5′-TAGTCCTGCAACATTTGAGAAACCA-3′ (all phosphorodiamidate morpholino (PMO))
cardiac edema (zebrafish embryos [3]): visible in some embryos
morphology and development (zebrafish embryos [3]): developmental delay, distorted tail morphology
smaller head and eyes (zebrafish embryos [3]): 73 % of embryos
blood colour (zebrafish embryos [3]): hypochromic
blood cells in circulation (zebrafish embryos [3]): fewer blood cells in circulation
Hemoglobin (Hb) staining, Hb content (zebrafish embryos [4]): significant reduction in Hb content
O-dianisidine staining (zebrafish embryos [4]): Reduced staining

adnp1b-MO: translation-blocking morpholino to zebrafish adnp1b, 5′-TTGTTCACTGGGAGTTGAAACATTC-3′ (all phosphorodiamidate morpholino (PMO))
cardiac edema (zebrafish embryos [3]): visible in some embryos
morphology and development (zebrafish embryos [3]): developmental delay, distorted tail morphology
smaller head and eyes (zebrafish embryos [3]): 92 % of embryos
blood colour (zebrafish embryos [3]): hypochromic
blood cells in circulation (zebrafish embryos [3]): fewer blood cells in circulation
Hemoglobin (Hb) staining, Hb content (zebrafish embryos [4]): significant reduction in Hb content
O-dianisidine staining (zebrafish embryos [4]): Reduced staining

adnp2a-MO: translation-blocking morpholino to zebrafish adnp2a, 5′-CACTGGAATCTGATACATTTTGCTC-3′ (all phosphorodiamidate morpholino (PMO))
cardiac edema (zebrafish embryos [3]): noticeable cardiac edema
morphology and development (zebrafish embryos [3]): no effect on the overall morphology
blood cells visible (zebrafish embryos [3]; between 33-48 hpf): no blood cells were evident
Hemoglobin (Hb) staining, Hb content (zebrafish embryos [4]): totally negative
O-dianisidine staining (zebrafish embryos [4]): No staining is visible
ectopic expression of band3 along the tail and yolk sinus (zebrafish embryos [5]; 4 dpf): 100 % of embryos
ectopic expression of gata1 along the tail and yolk sinus (zebrafish embryos [5]; 4 dpf): 86 % of embryos
gata1 expression normal in the ICM (zebrafish embryos [5]; 17-19 hpf): 100 % of embryos
lmo2 expression intact in the ICM (zebrafish embryos [5]; 17-19 hpf): 100 % of embryos
scl expression intact in the ICM (zebrafish embryos [5]; 17-19 hpf): 100 % of embryos
band3 expression almost absent (zebrafish embryos [5]; 28 hpf): 83 % of embryos
embryonic α-globin 1 expression significantly reduced (zebrafish embryos [5]; 28 hpf): 96 % of embryos
gata1 expression dramatically reduced (zebrafish embryos [5]; 28 hpf): 90 % of embryos
l-plastin expression intact (zebrafish embryos [5]; 28 hpf): 100 % of embryos
lys-C expression intact (zebrafish embryos [5]; 28 hpf): 100 % of embryos
band3 expression almost absent (zebrafish embryos [5]; 48 hpf): 97 % of embryos

adnp2b-MO: translation-blocking morpholino to zebrafish adnp2b, 5′-ACCTTTTACTGGAAACTGGTACATG-3′ (all phosphorodiamidate morpholino (PMO))
morphology and development (zebrafish embryos [3]): no developmental delay or major morphological changes
morphology (zebrafish embryos [3]; injection of higher doses of MO): distorted morphology
O-dianisidine staining (zebrafish embryos [4]): Reduced staining
